Assay results reported in patent publication EP2545917B1, “NOVEL EP4 AGONIST” (Kaken Pharmaceutical Co., Ltd., priority 2010, dated 2011).

What was measured:
[1] = test system: concanavalin A-induced hepatitis; assay: Prophylactic effect on concanavalin A-induced hepatitis model in mice; format: in vivo, BALB/c mice; settings: oral 1 hr before Con A, compound F 1 mg/10 mL/kg, prednisolone 5 mg/10 mL/kg, 20 hr after Con A
Method: BALB/c mice (female, 7 weeks old, Japan SLC) were purchased, acclimated for 1 week and used for the study. Except the no-induction group, Con A (type IV, Sigma-Aldrich) dissolved in saline was administered from the tail vein of the mice at a dose of 12.5 mg/10 mL/kg to induce hepatitis. Twenty hr later, the mice were subjected to laparotomy under ether anesthesia. A 0.5 mL of blood sample was collected from the caudal vena cava and heparinized plasma was obtained to measure plasma ALT and AST activities. Test substances were compound F (1 mg/10 mL solution), prednisolone (Nacalai Tesque, 5 mg/10 mL suspension (with 0.5 w/v% methylcellulose)) and water for injection (administered to the control group), which were orally administered at a volume of 10 mL/kg 1 hr before Con A injection. Seven to 9 animals were used for each group. After logarithmic transformation of the data, one-way analysis of variance was performed for statistical evaluation.

[2] = test system: CD4+CD25- T cell transfer colitis; assay: Prophylactic effect on CD4+CD25- T cell transfer colitis model in mice; format: in vivo, C.B-17/Icr-scid mice; settings: scid mice, oral 1 mg/kg once a day for 20 days
Method: Female BALB/cA Jcl mice, 6 weeks old, body weight 19 - 23 g (CLEA Japan, Inc.) and female C.B-17/Icr-scid mice (6 weeks old, CLEA Japan, Inc.) were purchased, acclimated for 1 week and used for the study. After laparotomy under ether anesthesia, BALB/cA Jcl mice were exsanguinated to death through the abdominal aorta and caudal vena cava, and the spleen was isolated. Splenocytes were prepared from the spleen and then CD4^+CD25^- T cells were prepared with a CD4^+ T cell Isolation Kit (No. 130-090-860, Milky Biotech Co., Ltd.) and CD25-Biotin antibody (No. 130-092-569, Milky Biotech Co., Ltd.). The cells were separated using the autoMACS Separator (Milky Biotech Co., Ltd.). The separated CD4^+CD25^- T cells were suspended in physiological phosphate buffer solution, and 2.5×10^5 cells per animal were intraperitoneally administered to C.B-17/Icr-scid mice to induce colitis. […] To the control group was orally administered a solvent (1 vol% ethanol solution) at 10 mL/kg. […] The fecal occult blood score was evaluated in the same manner as in Example 23. […] Eight to 10 mice were used for each group and the results were expressed as average.

[3] = test system: dextran sodium sulfate-induced colitis; assay: Prophylactic effect on dextran sodium sulfate-induced colitis model in mice (BALB/c); format: in vivo; settings: 2.2 w/v% DSS
Method: Female BALB/c mice (6 weeks old, Japan SLC) were purchased, acclimated for 1 week and used for the study. Except the normal group, the mice were allowed to freely drink a dextran sodium sulfate (to be abbreviated as DSS, MP Biochemicals, M.W. 36,000 - 50,000, Lot No. 3439J) solution prepared to 2.2 w/v% for 9 days to induce colitis. Compound F was orally administered at doses of 0.1, 0.3 and 1 mg/kg, once a day, daily, from the start day of DSS drinking (day 0) to one day before autopsy (day 9). To the control group was orally administered a solvent (1 vol% ethanol solution) at 10 mL/kg in the same manner.
Thus, to determine the level of diarrhea, the stool was graded into 6 levels; normal (score 0), spherical stool being not less than 50% (score 1), banana-shaped stool being less than 50% (score 2), banana-shaped stool being not less than 50% (score 3), muddy stool (score 4), watery stool (score […]) (stool consistency score). The fecal occult blood (including proctorrhagia) was graded using fecal occult blood slide 5 Shionogi II (Shionogi & Co., Ltd.) into 6 levels; negative (no change of the slide color from yellow, score 0), weakly positive (slightly blue green, score 1), positive (blue green, score 2), moderately positive (clear blue green, score 3), strongly positive (instantaneous color change to dark blue with color developer, score 4), and proctorrhagia (score 5). The sum of the stool consistency score and occult blood score was defined as the stool score. Eight to 10 animals were used for each group, and the results were expressed as average ± standard deviation. On the day of autopsy, after laparotomy under ether anesthesia and blood collection, the mice were exsanguinated to death. Then the large intestines were dissected from just below the cecum to the anus and the length thereof was measured.

[4] = test system: ethanol-induced gastric mucosal injury; assay: Ethanol-induced gastric mucosal injury model in rats; format: in vivo, SD rats
Method: Male SD rats (7 weeks old, Charles River) were purchased through Oriental BioService Inc., acclimated for 1 week and used for the study. The rats were grouped based on the body weight, placed in a clean cage set with a wire mesh floor one day before the study, fasted for 19 hr (without water for last 3 hr), and orally administered with ethanol (special grade, Nacalai Tesque, Lot No. V8A5862, 1.5 mL) in all groups to induce gastric mucosal injury. Compound F was orally administered at doses of 0.01, 0.1 and 1 mg/kg 30 min before induction of gastric mucosal injury at a volume of 5 mL/kg. To the control group was orally administered a solvent (1 vol% ethanol solution) at 5 mL/kg in the same manner. Eight animals were used for each group.
The rats were bled to death from the abdominal aorta and caudal vena cava under ether anesthesia after 1 hr from the ethanol administration, and the stomach was isolated. The isolated stomach was immediately filled with 2 vol% neutral formalin solution (6 mL) and fixed for 15 min. The stomach was incised along the midline of the greater curvature from the cardiac part to the pyloric part, and extended on a vinyl chloride board. The length and width of each ulcer were measured under a stereomicroscope, the area was calculated, and the sum thereof was taken as the total ulcer area.

eye = assay: Local irritative effect on the eye in rabbits; format: in vivo, Japanese white rabbits; settings: single instillation, left eye
Method: Japanese white rabbits (male, 10 weeks old, BIOTEC Co., Ltd.) were purchased, acclimated for 1 week and used for the study. Compound F solution (0.01 w/v%) was instilled once into the cornea of both eyes at a volume of 50 µL/eye with a micropipette. The intraocular pressure of the right eye was measured and the local irritative effect on the eye was evaluated using the left eye. After surface anesthesia with oxybupranol (Benoxil 0.4% instillation solution), the intraocular pressure was measured before ocular instillation ) and 1, 2, 3, 4, 6 and 8 hr after the instillation using a pneumatonometer (Alcon Ltd.). In addition, the local irritative effect on the eye was evaluated by scoring conjunctival congestion, conjunctival edema, cornea opacity, iris congestion, excretion and eye closure performance. For the evaluation, phosphate buffer was used for the solvent control group, and isopropyl unoprostone (Rescula eye drops, Santen Pharmaceutical Co., Ltd.) was used for comparison. Six animals were used for each group and the results were expressed as average.

Cc1cccc([C@@H](C)[C@H](O)/C=C/[C@@H]2[C@@H]3[C@H](C[C@H]2O)O/C(=C\CCCc2nnn[nH]2)C3(F)F)c1 [Compound F, 4-[(Z)-(1S,5R,6R,7R)-6-[(1E,3R,4R)-3-hydroxy-4-(m-tolyl)-1-pentenyl]-7-hydroxy-2-oxa-4,4-difluoro-bicyclo[3.3.0]octan-3-ylidene]-1-(tetrazol-5-yl)butane]
effect on increase of plasma ALT activity [1]: significantly and strongly suppressed the increase
effect on increase of plasma AST activity [1]: significantly and strongly suppressed the increase
DAI score [2]: comprehensively superior to prednisolone
effect on body weight decrease score [2]: prevented the increase in the body weight decrease score almost completely
suppression of the increase in the stool score ([3]; oral 0.1 mg/kg once a day): suppressive tendency
suppression of the increase in the stool score ([3]; oral 0.3 mg/kg once a day): significant
suppression of the increase in the stool score ([3]; oral 1 mg/kg once a day): significant
effect on shortening of the large intestine ([3]; oral 0.1, 0.3 and 1 mg/kg once a day): dose-dependent suppressive effect on shortening of the large intestine
effect on total ulcer area (stomach) ([4]; oral 1 mg/kg 30 min before ethanol): almost completely reduced the area
effect on total ulcer area (stomach) ([4]; oral 0.01, 0.1 and 1 mg/kg 30 min before ethanol): significantly reduced the total ulcer area in a dose-dependent manner from 0.01 mg/kg
local irritant effect on the eye (eye): conjunctival edema and eye closure were observed 1 hr after the instillation in some animals
